Reference: ChEMBL document CHEMBL1269004, “Synthesis of a 6-methyl-7-deaza analogue of adenosine that potently inhibits replication of polio and dengue viruses” (J Med Chem, 2010)

Assays:
Assay type in all cases: functional, HeLa S3
Enterovirus C [1] = system: Enterovirus C
Enterovirus C [2] = system: Enterovirus C; remark: listed apart in the source
Enterovirus C [3] = system: Enterovirus C; remark: listed apart in the source
Enterovirus C [4] = system: Enterovirus C; remark: listed apart in the source
Enterovirus C [5] = system: Enterovirus C; remark: listed apart in the source
Enterovirus C [6] = system: Enterovirus C; remark: listed apart in the source

Compound `Cc1ncnc2c1ncn2[C@@H]1O[C@H](CO)[C@@H](O)[C@H]1O` has a PFU (Enterovirus C [1]) of 12 and a PFU (Enterovirus C [2]) of 22.
Compound `Cc1ncnc2c1ccn2[C@@H]1O[C@H](CO)[C@@H](O)[C@H]1O` has a PFU (Enterovirus C [3]) of 17 and a PFU (Enterovirus C [4]) of 19.
Work on `NC(=O)c1ncn([C@@H]2O[C@H](CO)[C@@H](O)[C@H]2O)n1` [RIBAVIRIN] yielded a PFU (Enterovirus C [5]) of 150 and a PFU (Enterovirus C [6]) greater than 250.
